# Measured values published in US20260049101A1, “TOPICAL TREATMENT OF SKIN CANCER USING OLIGOPEPTIDES” (BACOBA AG, priority 2022, published 2026).
# Numbered stars: 1 amine (or outer) side, 2 acyl side, 3 side chain; on linkers, the order of the positions; unused ones are H or OH. Square brackets hold non-standard residues; d marks the D form. Peptide text beside a SMILES is read from it. * marks the point of attachment. Abu(4,4,4-F3) = N[C@@H](CC(F)(F)F)C(=O)O; X4 = C[C@](N[*:1])(C(=O)[*:2])C(F)(F)F; NH(1-CH2NMe2-cBu) = CN(C)CC1(N*)CCC1; Gly(octyl) = CCCCCCCC[C@H](N)C(=O)O; Oxazole4CO(2-Me) = Cc1nc(C(=O)*)co1; β3hAib = CC(C)(CC(=O)[*:2])N[*:1]; Benzoyl(4-F) = O=C(c1ccc(F)cc1)*; hCha = N[C@@H](CCC1CCCCC1)C(=O)O; Cha = N[C@@H](CC1CCCCC1)C(=O)O; X6 = CC(C)(CN[*:1])C(=O)[*:2]; NHCH2CH2NMe2 = CN(C)CCN*; NHCH2CH2NHMe = CNCCN*; Aib = CC(C)(N)C(=O)O; βAla = NCCC(=O)O
# Test system: cutaneous squamous cell carcinoma cell line SCC12
# Assay: In vitro anti-proliferative assay (resazurin) in SCC12
# Type: cell-based
# Conditions: SCC12, 72 hours
# From the text: Methodology. The cutaneous squamous cell carcinoma cell culture SCC12 was cultivated in keratinocyte-SFM media (KSFM, Cat #17005042, Gibco) supplemented with human recombinant epidermal growth factor 1-53 (EGF 1-53) and bovine pituitary extract (BFE).
# Vehicle treated wells were set to 100% viability.
row,Compound,IC50
1,"Cc1nc(C(=O)N2CCC[C@H]2C(=O)N[C@@H](Cc2ccccc2)C(=O)N[C@@H](CC(C)C)C(=O)NC(C)(C)C(=O)N[C@@H](CC(C)C)C(=O)N[C@@H](CC(C)C)C(=O)NC(C)(C)C(=O)NC(C)(C)C(=O)NCCC(=O)NC2(CN(C)C)CCC2)co1 [Compound 6328, (2S)—N-(1-{[(1S)-1-{[(1S)-1-({1-[(1-{[2-({1-[(dimethylamino)methyl]cyclobutyl}carbamoyl)ethyl]carbamoyl}-1-methylethyl)carbamoyl]-1-methylethyl}carbamoyl)-3-methylbutyl]carbamoyl}-3-methylbutyl]carbamoyl}-1-methylethyl)-4-methyl-2-[(2S)-2-{[(2S)-1-(2-methyl-1,3-oxazole-4-carbonyl)pyrrolidin-2-yl]formamido}-3-phenylpropanamido]pentanamide] ({Oxazole4CO(2-Me)}-PFL[Aib]LL[Aib][Aib][βAla]-{NH(1-CH2NMe2-cBu)})",1.66 µM
2,"CC(C)C[C@H](NC(=O)[C@H](CCC1CCCCC1)NC(=O)[C@@H]1CCCN1C(=O)c1ccc(F)cc1)C(=O)NC(C)(C)C(=O)N[C@@H](CC(C)C)C(=O)N[C@@H](CC(C)C)C(=O)NC(C)(C)C(=O)N[C@@](C)(C(=O)NCCC(=O)NC1(CN(C)C)CCC1)C(F)(F)F [Compound 21359, (2S)-2-[(2S)-4-cyclohexyl-2-{[(2S)-1-(4-fluorobenzoyl)pyrrolidin-2-yl]formamido}butanamido]-N-(1-{[(1S)-1-{[(1S)-1-[(1-{[(1S)-1-{[2-({1-[(dimethylamino)methyl]cyclobutyl}carbamoyl)ethyl]carbamoyl}-2,2,2-trifluoro-1-methylethyl]carbamoyl}-1-methylethyl)carbamoyl]-3-methylbutyl]carbamoyl}-3-methylbutyl]carbamoyl}-1-methylethyl)-4-methylpentanamide] ({Benzoyl(4-F)}-P[hCha]L[Aib]LL[Aib][X4][βAla]-{NH(1-CH2NMe2-cBu)})",0.36 µM
3,"Cc1nc(C(=O)N2CCC[C@H]2C(=O)N[C@@H](CC2CCCCC2)C(=O)N[C@@H](CC(C)C)C(=O)NC(C)(C)C(=O)N[C@@H](CC(C)C)C(=O)N[C@@H](CC(C)C)C(=O)NC(C)(C)C(=O)NC(C)(C)C(=O)NCCC(=O)NC2(CN(C)C)CCC2)co1 [Compound 7059, (2S)-2-[(2S)-3-cyclohexyl-2-{[(2S)-1-(2-methyl-1,3-oxazole-4-carbonyl)pyrrolidin-2-yl]formamido}propanamido]-N-(1-{[(1S)-1-{[(1S)-1-({1-[(1-{[2-({1-[(dimethylamino)methyl]cyclobutyl}carbamoyl)ethyl]carbamoyl}-1-methylethyl)carbamoyl]-1-methylethyl}carbamoyl)-3-methylbutyl]carbamoyl}-3-methylbutyl]carbamoyl}-1-methylethyl)-4-methylpentanamide] ({Oxazole4CO(2-Me)}-P[Cha]L[Aib]LL[Aib][Aib][βAla]-{NH(1-CH2NMe2-cBu)})",0.5 µM
4,"CC(C)C[C@H](NC(=O)[C@H](CCC1CCCCC1)NC(=O)[C@@H]1CCCN1C(=O)c1ccc(F)cc1)C(=O)NC(C)(C)C(=O)N[C@@H](CC(C)C)C(=O)N[C@@H](CC(F)(F)F)C(=O)NC(C)(C)C(=O)NC(C)(C)C(=O)NCCC(=O)NC1(CN(C)C)CCC1 [Compound 21369, (2S)-2-[(2S)-4-cyclohexyl-2-{[(2S)-1-(4-fluorobenzoyl)-pyrrolidin-2-yl]formamido}butan-amido]-N-(1-{[(1S)-1-{[(1S)-1-({1-[(1-{[2-({1-[(dimethylamino)methyl]cyclobutyl}carba-moyl)ethyl]carbamoyl}-1-methylethyl)carbamoyl]-1-methylethyl}carbamoyl)-3,3,3-trifluoropropyl]carbamoyl}-3-methylbutyl]carbamoyl}-1-methylethyl)-4-methylpentanamide] ({Benzoyl(4-F)}-P[hCha]L[Aib]L[Abu(4,4,4-F3)][Aib][Aib][βAla]-{NH(1-CH2NMe2-cBu)})",0.167 µM
5,"CCCCCCCC[C@H](NC(=O)[C@@H]1CCCN1C(=O)c1coc(C)n1)C(=O)N[C@@H](CC(C)C)C(=O)NC(C)(C)C(=O)N[C@@H](CC(C)C)C(=O)N[C@@H](CC(C)C)C(=O)NC(C)(C)C(=O)NC(C)(C)C(=O)NCCC(=O)NC1(CN(C)C)CCC1 [Compound 6253, (2S)—N-[(1S)-1-[(1-{[(1S)-1-{[(1S)-1-({1-[(1-{[2-({1-[(dimethylamino)methyl]cyclobutyl}carbamoyl)ethyl]carbamoyl}-1-methylethyl)carbamoyl]-1-methylethyl}carbamoyl)-3-methylbutyl]carbamoyl}-3-methylbutyl]carbamoyl}-1-methylethyl)carbamoyl]-3-methylbutyl]-2-{[(2S)-1-(2-methyl-1,3-oxazole-4-carbonyl)pyrrolidin-2-yl]formamido}decanamide] ({Oxazole4CO(2-Me)}-P[Gly(octyl)]L[Aib]LL[Aib][Aib][βAla]-{NH(1-CH2NMe2-cBu)})",0.14 µM
6,"CCCCCCCC[C@H](NC(=O)[C@@H]1CCCN1C(=O)c1coc(C)n1)C(=O)N[C@@H](CC(C)C)C(=O)NC(C)(C)C(=O)N[C@@H](CC(C)C)C(=O)N[C@@H](CC(C)C)C(=O)NC(C)(C)C(=O)NC(C)(C)C(=O)NCCC(=O)NCCNC [Compound 7058, (2S)-2-{[(2S)-1-(2-methyl-1,3-oxazole-4-carbonyl)pyrrolidin-2-yl]formamido}-N-[(1S)-3-methyl-1-[(1-methyl-1-{[(1S)-3-methyl-1-{[(1S)-3-methyl-1-{[1-methyl-1-({1-methyl-1-[(2-{[2-(methylamino)ethyl]carbamoyl}ethyl)carbamoyl]ethyl}carbamoyl)ethyl]carbamoyl}butyl]carbamoyl}butyl]carbamoyl}ethyl)carbamoyl]butyl]decanamide] ({Oxazole4CO(2-Me)}-P[Gly(octyl)]L[Aib]LL[Aib][Aib][βAla]-NHCH2CH2NHMe)",0.717 µM
7,"CC(C)C[C@H](NC(=O)[C@H](CC(C)C)NC(=O)C(C)(C)NC(=O)[C@H](CC(C)C)NC(=O)[C@H](CCC1CCCCC1)NC(=O)[C@@H]1CCCN1C(=O)c1ccc(F)cc1)C(=O)NC(C)(C)C(=O)NCC(C)(C)C(=O)NCCC(=O)NC1(CN(C)C)CCC1 [Compound 21164, (2S)-2-[(2S)-4-cyclohexyl-2-{[(2S)-1-(4-fluorobenzoyl)pyrrolidin-2-yl]formamido}butan-amido]-N-(1-{[(1S)-1-{[(1S)-1-({1-[(2-{[2-({1-[(dimethylamino)methyl]cyclobutyl}carba-moyl)ethyl]carbamoyl}-2,2-dimethylethyl)carbamoyl]-1-methylethyl}carbamoyl)-3-methylbutyl]carbamoyl}1-3-methylbutyl]carbamoyl}-1-methylethyl)-4-methylpentanamide] ({Benzoyl(4-F)}-P[hCha]L[Aib]LL[Aib][X6][βAla]-{NH(1-CH2NMe2-cBu)})",0.712 µM
8,"CC(C)C[C@H](NC(=O)CC(C)(C)NC(=O)[C@H](CC(C)C)NC(=O)[C@H](CCC1CCCCC1)NC(=O)[C@@H]1CCCN1C(=O)c1ccc(F)cc1)C(=O)N[C@@H](CC(C)C)C(=O)NC(C)(C)CC(=O)NC(C)(C)CC(=O)NCCC(=O)NC1(CN(C)C)CCC1 [Compound 21368, (2S)-2-[(2S)-4-cyclohexyl-2-{[(2S)-1-(4-fluorobenzoyl)pyrrolidin-2-yl]formamido}butan-amido]-N-(1-{[(1S)-1-{[(1S)-1-({1-[(1-{[2-({1-[(dimethylamino)methyl]cyclobutyl}carba-moyl)ethyl]carbamoyl}-2-methylpropan-2-yl)carbamoyl]-2-methylpropan-2-yl}carbamoyl)-3-methylbutyl]carbamoyl}-3-methylbutyl]carbamoyl}-2-methylpropan-2-yl)-4-methylpentanamide]",> 10 µM
9,"CC(C)C[C@H](NC(=O)[C@H](CCC1CCCCC1)NC(=O)[C@@H]1CCCN1C(=O)c1ccc(F)cc1)C(=O)NC(C)(C)C(=O)N[C@@H](CC(C)C)C(=O)N[C@@H](CC(C)C)C(=O)NC(C)(C)C(=O)NC(C)(C)C(=O)NCCC(=O)NCCN(C)C [Compound 8343, (2S)-2-[(2S)-4-cyclohexyl-2-{[(2S)-1-(4-fluorobenzoyl)pyrrolidin-2-yl]formamido}butanamido]-N-(1-{[(1S)-1-{[(1S)-1-{[1-({1-[(2-{[2-(dimethylamino)ethyl]carbamoyl}ethyl)carbamoyl]-1-methylethyl}carbamoyl)-1-methylethyl]carbamoyl}-3-methylbutyl]carbamoyl}-3-methylbutyl]carbamoyl}-1-methylethyl)-4-methylpentanamide] ({Benzoyl(4-F)}-P[hCha]L[Aib]LL[Aib][Aib][βAla]-NHCH2CH2NMe2)",0.241 µM
10,"CC(C)C[C@H](NC(=O)[C@H](CCC1CCCCC1)NC(=O)[C@@H]1CCCN1C(=O)c1ccc(F)cc1)C(=O)NC(C)(C)C(=O)N[C@@H](CC(C)C)C(=O)N[C@@H](CC(C)C)C(=O)NC(C)(C)C(=O)NC(C)(C)CC(=O)NCCC(=O)NC1(CN(C)C)CCC1 [Compound 21365, (2S)-2-[(2S)-4-cyclohexyl-2-{[(2S)-1-(4-fluorobenzoyl)pyrrolidin-2-yl]formamido}butan-amido]-N-(1-{[(1S)-1-{[(1S)-1-({1-[(1-{[2-({1-[(dimethylamino)methyl]cyclobutyl}carbamoyl)ethyl]carbamoyl}-2-methylpropan-2-yl)carbamoyl]-1-methylethyl}carbamoyl)-3-methylbutyl]carbamoyl}-3-methylbutyl]carbamoyl}-1-methylethyl)-4-methylpentanamide] ({Benzoyl(4-F)}-P[hCha]L[Aib]LL[Aib][β3hAib][βAla]-{NH(1-CH2NMe2-cBu)})",0.511 µM
